From patent US11573241B2, “Total cellular iron as a marker of cancer stem cells and uses thereof” (Institut National de la Sante et de la Recherche Medicale …, priority 2016, dated 2023)

Experiments:
[1] = tested on: HMLER CD24^low cells; test: Localization of intracellular iron(II) with RhoNox-1; assay type: cell-based, human; conditions: 0.5 μM, 48 h; for lysotracker-positive vesicles colocalized with the RhoNox-1 probe: fixed cells
Protocol: Localization of intracellular iron(II). RhoNox-1 was synthesized according to the original procedure described in […]. Cells were washed with 1× Hank's Balanced Salt Solution (HBSS, 14025-092, Life technologies) three times, then incubated with 5 μM of RhoNox-1/HBSS for 1 h at 37° C., 5% CO2 and washed with HBSS. Co-staining was performed by adding 100 nM LysoTracker Deep Red and Hoechst 33342 (H1399, Sigma, final concentration of 1 μg/mL) in HBSS. Experiments were performed with a 60×APO TIRF oil immersion objective of Nipkow Spinning Disk confocal system.

[2] = tested on: patient-derived xenografts (PDX 1 and 2); assay type: in vivo, NOD/SCID mice; conditions: intra-peritoneal; for ratio of residual ALDH+ cells / tumor growth: 4 weeks
Text: Patient derived xenografts (PDXs). PDXs were established as previously described in Charafe-Jauffret et al., Cancer Res. 73, 7290-7300 (2013) from tissue samples collected prospectively at the Institut Paoli-Calmettes (IPC). Samples of human origin and associated data were obtained from the IPC/CRCM Tumor Bank that operates under authorization #AC-2007-33 granted by the French Ministry of Higher Education and Research. Before scientific use of samples and data, patients were appropriately informed and asked to consent in writing, in compliance with French and European regulations. The project was approved by the IPC Institutional Review Board. Cells from 2 different patient-derived xenografts (PDX 1 and 2) were transplanted orthotopically into fat pads of 4-week-old female non-obese diabetic/severe combined immunodeficient (NOD/SCID) mice (NOD.CB17-Prkdcscid/J, Charles River France) after mechanical treatment and enzymatic digestion using collagenase/hyaluronidase (StemCell Technologies) to generate single-cell suspension suitable for implantation in vivo. PDXs were primarily established as previously described in Caraft-Jauffret et al., and evaluated for ALDEFLUOR-positive CSCs. We injected single cancer cells into fat pads of NOD/SCID mice and monitored tumor growth. When tumor size reached approximately 150 mm^3, Sal and AM5 treatments were performed as indicated above for FIGS. 14 and 15. Tumor growth was compared with that of docetaxel and placebo-treated controls. After 4 weeks of treatment, the animals were sacrificed and the proportion of ALDEFLUOR-positive CSCs was measured in each residual tumor. All animal studies were approved by the French Ministry of Higher Education and Research (authorization number D130554) and ethical committee (number 14), of Aix-Marseille Université. No randomization was used and experimenters were blinded to drug treatments and tissue analyses.
Aldefluor assay. The analysis was processed on single-cell suspension from the PDXs obtained as described above. The ALDEFLUOR Kit (Stemcell™ Technologies) was used to isolate the population with high aldehyde dehydrogenase enzymatic activity using an LSR2 cytometer (Becton Dickinson Biosciences), as previously described in Charafe-Jauffret et al. To eliminate cells of mouse origin from the PDXs, we used staining with an anti-H2Kd antibody (BD Biosciences, 1:200, 20 min on ice) followed by staining with a secondary antibody labeled with phycoerythrin (PE; Jackson Laboratories, 1:250, 20 min on ice).

[3] = assay type: physicochemical
Text: FIG. 1. Salinomycin and AM5 sequester iron in lysosomes and trigger ferritin degradation. a, Chemical strategy to visualize small molecules in cells. b, Fluorescence microscopy images of U2OS cells showing the subcellular localization of labeled Sal derivatives AM4, AM5, and AM9. Lysotracker Deep Red stains the lysosomes and 4′,6-diamidino-2-phenylindole (DAPI) stains nuclear DNA. Scale bar, 10 μm. Zoom corresponds to ×6. c, Live cell fluorescence microscopy images showing the subcellular localization of iron(II) using the fluorogenic reduction of RhoNox-1 (green) in HMLER CD24^low cells treated with Sal or AM5 or AM9 (0.5 μM) for 48 h. Lysotracker deep red stains the lysosomes (red) and DAPI stains nuclear DNA (blue). Scale bar, 10 μm. d, Fixed cell fluorescence microscopy images showing the subcellular localization of iron(II) using the fluorogenic reduction of RhoNox-1 (green) in HMLER CD24^low cells treated with Sal or AM5 or AM9 (0.5 μM) for 48 h. e, Quantification of lysotracker-positive vesicles colocalizing with RhoNox-1 in fixed cells was carried out by means of visual inspection. At least 75 cells were counted per condition. Data represent three independent biological replicates (n=number of lysotracker vesicles). […] Spectra were recorded in CD3CN. […] For k and I, Samples prepared in CD3OD, spectra recorded at 298 K, 5 min following sample preparation (600 MHz). […]

Row | Structure (SMILES) | staining of iron(II) (subcellular localization) [1] | lysotracker-positive vesicles colocalized with the RhoNox-1 probe [1] | toxicity at effective doses [2] | ratio of residual ALDH+ cells [2] | tumor growth [2] | stability in the presence of iron(II) over time [3]
1 | C#CCN[C@@H]1C=C[C@]2(O[C@H]([C@@H](CC)C(=O)[C@@H](C)[C@@H](O)[C@H](C)C3O[C@@H](C(CC)C(=O)O)CC[C@@H]3C)[C@@H](C)C[C@H]2C)O[C@@]12CC[C@@](C)([C@H]1CC[C@](O)(CC)[C@H](C)O1)O2 (stereo partly drawn) [AM5, Sal-Propargylamine] | restricted to the lysosomal compartment | approximately 80% | without detectable toxicity | reduced ratio of ALDH+ cells | reduce tumor growth | stable
2 | CC[C@@H](C(=O)[C@@H](C)[C@@H](O)[C@H](C)[C@@H]1O[C@@H]([C@@H](CC)C(=O)O)CC[C@@H]1C)[C@H]1O[C@]2(C=C[C@@H](O)[C@]3(CC[C@@](C)([C@H]4CC[C@](O)(CC)[C@H](C)O4)O3)O2)[C@H](C)C[C@@H]1C [Sal, salinomycin, reference compound] | restricted to the lysosomal compartment | approximately 80% | without detectable toxicity | reduced ratio of ALDH+ cells | reduce tumor growth | formation of byproducts
